According to US9840513B2 (AbbVie S.à.r.l., priority 2015, dated 2017):

Target: T1, F508delCFTR cell surface expression in CFBE41o-F508delCFTR-HRP cells (Homo sapiens, UniProt P13569, DEL508-508)
T1 construct: fused on or other part: Horseradish peroxidase (HRP) reporter inserted in the fourth exofacial (extracellular) loop of CFTR; expression is doxycycline-inducible
Assay: Cell Surface Expression-Horse Radish Peroxidase (CSE-HRP) Assay
Type: cell-based
Conditions: for EC50: CFBE41o-F508delCFTR-HRP cells, 18-24 hours at 33° C., 8-point curve, highest concentration 20 μM; for Maximum % activity (%): maximum at any tested concentration, normalized to on-plate positive control (3 μM)
How it was run: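 Correctors incubated 18-24 h at 33 °C on doxycycline-induced (0.5 μg/mL, 72 h) CFBE41o-F508delCFTR-HRP cells, 3-fold series from 20 μM. After DPBS washes, luminol luminescence read; activity expressed relative to DMSO and a 3 μM positive control, EC50 fitted from triplicate plates.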

T1 sequence (P13569 with tags, fused parts or gaps DEL508-508 limits assumed): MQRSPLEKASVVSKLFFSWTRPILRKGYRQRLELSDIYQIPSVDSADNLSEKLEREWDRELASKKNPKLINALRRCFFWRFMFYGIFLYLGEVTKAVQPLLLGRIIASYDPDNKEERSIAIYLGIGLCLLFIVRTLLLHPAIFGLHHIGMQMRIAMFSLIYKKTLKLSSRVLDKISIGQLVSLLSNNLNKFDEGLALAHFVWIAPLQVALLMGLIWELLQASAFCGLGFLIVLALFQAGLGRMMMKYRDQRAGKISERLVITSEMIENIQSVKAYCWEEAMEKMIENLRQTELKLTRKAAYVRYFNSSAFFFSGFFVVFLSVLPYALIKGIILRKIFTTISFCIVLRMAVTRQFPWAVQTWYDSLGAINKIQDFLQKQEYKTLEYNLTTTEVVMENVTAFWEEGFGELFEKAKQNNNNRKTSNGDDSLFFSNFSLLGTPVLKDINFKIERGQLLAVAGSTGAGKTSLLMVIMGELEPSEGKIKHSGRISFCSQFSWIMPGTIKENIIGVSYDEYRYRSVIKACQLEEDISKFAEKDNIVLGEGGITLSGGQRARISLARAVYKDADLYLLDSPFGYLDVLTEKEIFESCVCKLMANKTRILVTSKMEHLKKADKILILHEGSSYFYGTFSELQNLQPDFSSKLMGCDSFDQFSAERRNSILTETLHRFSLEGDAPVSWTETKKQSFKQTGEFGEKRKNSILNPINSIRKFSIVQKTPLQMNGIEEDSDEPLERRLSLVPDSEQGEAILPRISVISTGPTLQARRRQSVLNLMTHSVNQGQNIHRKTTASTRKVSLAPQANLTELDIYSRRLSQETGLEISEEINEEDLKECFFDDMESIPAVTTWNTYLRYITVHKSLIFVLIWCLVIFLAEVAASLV
T1 sequence (P13569 919-1480 limits assumed, stated change not applied): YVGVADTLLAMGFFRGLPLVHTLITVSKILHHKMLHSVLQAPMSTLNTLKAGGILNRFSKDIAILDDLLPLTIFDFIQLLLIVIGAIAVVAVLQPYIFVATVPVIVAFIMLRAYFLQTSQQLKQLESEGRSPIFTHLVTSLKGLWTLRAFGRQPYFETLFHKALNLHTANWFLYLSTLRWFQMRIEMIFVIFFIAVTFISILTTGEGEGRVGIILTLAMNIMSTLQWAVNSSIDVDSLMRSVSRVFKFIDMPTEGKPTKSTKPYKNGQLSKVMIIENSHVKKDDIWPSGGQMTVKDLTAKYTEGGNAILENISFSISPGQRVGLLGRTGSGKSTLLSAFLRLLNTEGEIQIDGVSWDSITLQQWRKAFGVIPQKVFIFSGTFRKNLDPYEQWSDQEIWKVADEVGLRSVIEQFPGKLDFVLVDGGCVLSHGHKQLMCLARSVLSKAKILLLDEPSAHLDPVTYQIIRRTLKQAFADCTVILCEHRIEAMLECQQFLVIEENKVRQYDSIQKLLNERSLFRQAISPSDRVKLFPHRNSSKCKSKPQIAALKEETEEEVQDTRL

Compound | EC50 [nM] | Maximum % activity (%)
C[C@]1(C(=O)Nc2cccc(-c3ccc(C(=O)O)cc3)n2)COc2cc3c(cc21)OC(F)(F)O3 [Example 81, 4-(6-{[(7R)-2,2-difluoro-7-methyl-6,7-dihydro-2H-furo[2,3-f][1,3]benzodioxole-7-carbonyl]amino}pyridin-2-yl)benzoic acid] | 1400 | 200
CC(CO)NC(=O)[C@H]1CC[C@H]([C@H]2C[C@@H](NC(=O)[C@@]3(C)COc4cc5c(cc43)OC(F)(F)O5)c3ccc(OC(F)(F)F)cc3O2)CC1 (stereo partly drawn) [Example 259, (7R)-2,2-difluoro-N-[(2R,4R)-2-{trans-4-[(1-hydroxypropan-2-yl)carbamoyl]cyclohexyl}-7-(trifluoromethoxy)-3,4-dihydro-2H-1-benzopyran-4-yl]-7-methyl-6,7-dihydro-2H-furo[2,3-f][1,3]benzodioxole-7-carboxamide] | 80 | 163
COc1ccc2c(c1)O[C@@H](c1ccc(C(=O)N3CCC(O)(CCO)C3)cn1)C[C@H]2NC(=O)[C@@]1(C)COc2cc3c(cc21)OC(F)(F)O3 (stereo partly drawn) [Example 238, (7R)-2,2-difluoro-N-[(2R,4R)-2-{5-[3-hydroxy-3-(2-hydroxyethyl)pyrrolidine-1-carbonyl]pyridin-2-yl}-7-methoxy-3,4-dihydro-2H-1-benzopyran-4-yl]-7-methyl-6,7-dihydro-2H-furo[2,3-f][1,3]benzodioxole-7-carboxamide] | 80 | 113
CC1(C(=O)Nc2cccc(N3CC[C@@H](C(=O)O)C3)n2)COc2cc3c(cc21)OC(F)(F)O3 (stereo partly drawn) [Example 8, (3R)-1-{6-[(2,2-difluoro-7-methyl-6,7-dihydro-2H-furo[2,3-f][1,3]benzodioxole-7-carbonyl)amino]pyridin-2-yl}pyrrolidine-3-carboxylic acid] | 1470 | 126
COc1ccc2c(c1)O[C@@H](c1ccc(C(=O)NCCS(C)(=O)=O)cn1)C[C@H]2NC(=O)[C@@]1(C)COc2cc3c(cc21)OC(F)(F)O3 [Example 230, 6-[(2R,4R)-4-{[(7R)-2,2-difluoro-7-methyl-6,7-dihydro-2H-furo[2,3-f][1,3]benzodioxole-7-carbonyl]amino}-7-methoxy-3,4-dihydro-2H-1-benzopyran-2-yl]-N-[2-(methanesulfonyl)ethyl]pyridine-3-carboxamide] | 60 | 115
COC(=O)c1cccc([C@H]2C[C@@H](NC(=O)[C@]3(C)COc4cc5c(cc43)OC(F)(F)O5)c3ccc(OC)cc3O2)c1 [Example 12] | > 20000 | 14
COc1ccc2c(c1)O[C@H]([C@H]1CC[C@H](C(=O)O)CC1)C[C@@H]2NC(=O)[C@@]1(C)COc2cc3c(cc21)OC(F)(F)O3 [Example 154, trans-4-[(2S,4S)-4-{[(7R)-2,2-difluoro-7-methyl-6,7-dihydro-2H-furo[2,3-f][1,3]benzodioxole-7-carbonyl]amino}-7-methoxy-3,4-dihydro-2H-1-benzopyran-2-yl]cyclohexane-1-carboxylic acid] | 915 | 103
C[C@]1(C(=O)N[C@@H]2C[C@H](C3(C(=O)N(CCO)CCO)CC3)Oc3cc(OC(F)(F)F)ccc32)COc2cc3c(cc21)OC(F)(F)O3 [Example 279, (7R)—N-[(2R,4R)-2-{1-[bis(2-hydroxyethyl)carbamoyl]cyclopropyl}-7-(trifluoromethoxy)-3,4-dihydro-2H-1-benzopyran-4-yl]-2,2-difluoro-7-methyl-6,7-dihydro-2H-furo[2,3-f][1,3]benzodioxole-7-carboxamide] | 560 | 119
COc1ccc2c(c1)O[C@@H](c1ccc(C(=O)NC(CO)c3ccccc3OC)cn1)C[C@H]2NC(=O)[C@@]1(C)COc2cc3c(cc21)OC(F)(F)O3 (stereo partly drawn) [Example 222, 6-[(2R,4R)-4-{[(7R)-2,2-difluoro-7-methyl-6,7-dihydro-2H-furo[2,3-f][1,3]benzodioxole-7-carbonyl]amino}-7-methoxy-3,4-dihydro-2H-1-benzopyran-2-yl]-N-[2-hydroxy-1-(2-methoxyphenyl)ethyl]pyridine-3-carboxamide] | 20 | 116

Results, then the molecule that gave them:

EC50 [nM] | Maximum % activity (%) | Compound
30 | 124 | COc1ccc2c(c1)O[C@@H](c1ccc(C(=O)N(C)CC(O)c3ccccc3)cn1)C[C@H]2NC(=O)[C@@]1(C)COc2cc3c(cc21)OC(F)(F)O3 (stereo partly drawn) [Example 211, 6-[(2R,4R)-4-{[(7R)-2,2-difluoro-7-methyl-6,7-dihydro-2H-furo[2,3-f][1,3]benzodioxole-7-carbonyl]amino}-7-methoxy-3,4-dihydro-2H-1-benzopyran-2-yl]-N-(2-hydroxy-2-phenylethyl)-N-methylpyridine-3-carboxamide]
7290 | 46 | COC(=O)c1ccc(-c2csc(NC(=O)C3(C)COc4cc5c(cc43)OC(F)(F)O5)n2)cc1 (centres unmarked) [Example 64, methyl 4-{2-[(2,2-difluoro-7-methyl-6,7-dihydro-2H-furo[2,3-f][1,3]benzodioxole-7-carbonyl)amino]-1,3-thiazol-4-yl}benzoate]
1540 | 86 | COc1ccc2c(c1)O[C@H](COCc1ccccc1)C[C@@H]2NC(=O)[C@@]1(C)COc2cc3c(cc21)OC(F)(F)O3 [Example 278, (7R)—N-{(2S,4S)-2-[(benzyloxy)methyl]-7-methoxy-3,4-dihydro-2H-1-benzopyran-4-yl}-2,2-difluoro-7-methyl-6,7-dihydro-2H-furo[2,3-f][1,3]benzodioxole-7-carboxamide]
> 20000 | 12 | C[C@]1(C(=O)N[C@H]2C[C@@H](C3CCN(CC(=O)O)CC3)Oc3cc(OC(F)(F)F)ccc32)COc2cc3c(cc21)OC(F)(F)O3 [Example 184, {4-[(2S,4S)-4-{[(7R)-2,2-difluoro-7-methyl-6,7-dihydro-2H-furo[2,3-f][1,3]benzodioxole-7-carbonyl]amino}-7-(trifluoromethoxy)-3,4-dihydro-2H-1-benzopyran-2-yl]piperidin-1-yl}acetic acid]
670 | 189 | CC(C)(C)OC(=O)CN1CCC([C@H]2C[C@@H](NC(=O)[C@@]3(C)COc4cc5c(cc43)OC(F)(F)O5)c3ccc(OC(F)(F)F)cc3O2)CC1 [Example 186, tert-butyl {4-[(2R,4R)-4-{[(7R)-2,2-difluoro-7-methyl-6,7-dihydro-2H-furo[2,3-f][1,3]benzodioxole-7-carbonyl]amino}-7-(trifluoromethoxy)-3,4-dihydro-2H-1-benzopyran-2-yl]piperidin-1-yl}acetate]
1310 | 139 | CC1(C(=O)O)CN(c2cccc(NC(=O)[C@@]3(C)COc4cc5c(cc43)OC(F)(F)O5)n2)C1 [Example 96, 1-(6-{[(7R)-2,2-difluoro-7-methyl-6,7-dihydro-2H-furo[2,3-f][1,3]benzodioxole-7-carbonyl]amino}pyridin-2-yl)-3-methylazetidine-3-carboxylic acid]
490 | 129 | CC(C)(CO)c1cc2cc(NC(=O)[C@@]3(C)COc4cc5c(cc43)OC(F)(F)O5)c(F)cc2[nH]1 [Example 143, (7R)-2,2-difluoro-N-[6-fluoro-2-(1-hydroxy-2-methylpropan-2-yl)-1H-indol-5-yl]-7-methyl-6,7-dihydro-2H-furo[2,3-f][1,3]benzodioxole-7-carboxamide]
